Data published in US20140179688A1, “PLOD-2 Modulators and Their Use in the Treatment of Skin” (AVON PRODUCTS, INC., priority 2012, published 2014).

System: PLOD-2
Assay: PLOD-2 expression by qRT-PCR versus other anti-aging actives (Example 5)
Format: cell-based, Human
Conditions: for Significant Increases in PLOD-2 Expression: 48 hours, fibroblasts, relative to vehicle; for induction of a significant level of PLOD-2 in skin cells: concentrations as in Table 5
Experimental: Normal Human Dermal Fibroblasts were Grown in DMEM (Mediatech; cat. #: 15-013-CV) containing 10% Fetal Bovine Serum (Perbio; cat. #: SH30070.03), Penicillin/Streptomycin (Mediatech, Cat #30-001-C1), L-Glutamine (Mediatech; cat. #: 25-005-CI) at 37° C. and 10% CO2. […] RNA was isolated using RNeasy RNA extraction kit (74106) from Qiagen. RNA concentrations were determined using NanoDrop Spectrophotometer ND 1000 ([…]).
RT reactions were conducted in a total volume of 20 μl using the High Capacity cDNA kit from AB (PN 4368814). The RT mixture was prepared to contain 2 μl 10× TaqMan RT buffer, 1.2 μl dNTP mix ([…]), 1.0 μl 10× Random Hexamer, 1 μl RNase Inhibitor, 1 μl MultiScribe Reverse Transcriptase ([…]), 100 ng of RNA, and RNase-free water to make up the final volume of 20 μl. The reaction was incubated at 25° C. for 10 min, 45° C. for 45 min, and then 95° C. for 5 min in a BIORAD MY CYCLER.
QPCR was carried out using Applied Biosystems Universal PCR Master Mix (PN 4369016). The mixture contained 10 μl of Taqman Universal PCR mix, 1 μl of primer and probe mix, 2 μl of RT product, and 7 μl of deionized water. All probes, Taqman assays were, were purchased from Applied Biosystems, Hs01118190 ml for PLOD-2, and human GAPDH (PN 4352934). The temperature profiles for qPCR were 50° C. for 2 min, and 95° C. for 10 min for 1 cycle, then at 95° C. for 15 sec, and 60° C. for 1 min for 40 cycles carried out in Stratagene Mx 3005P qPCR machine.
RNA isolated from cells were analyzed by qRT-PCR for expression levels of PLOD-2, using GAPDH as an internal control.

Compound | Significant Increases in PLOD-2 Expression (5 μM) | Significant Increases in PLOD-2 Expression (10 μM) | induction of a significant level of PLOD-2 in skin cells | further results
CC1=C(/C=C/C(C)=C/C=C/C(C)=C/CO)C(C)(C)CCC1 [Retinol] | No | No | did not induce a significant level of PLOD-2 | –
Hyaluronic Acid | – | – | did not induce a significant level of PLOD-2 | Significant Increases in PLOD-2 Expression (0.001%): No; Significant Increases in PLOD-2 Expression (0.005%): No
O=C(O)CO [Glycolic Acid (AHA), Glycolic Acid] | – | – | did not induce a significant level of PLOD-2 | Significant Increases in PLOD-2 Expression (0.05%): No; Significant Increases in PLOD-2 Expression (0.10%): No
NC(=O)c1cccnc1 [Niacinamide] | – | – | did not induce a significant level of PLOD-2 | Significant Increases in PLOD-2 Expression (0.05%): No; Significant Increases in PLOD-2 Expression (0.10%): No
N#Cc1cccc(CN2CCNC(=O)CC2c2nccs2)c1 (centres unmarked) [ALB-H16063163] | – | – | significantly stimulate | –
N-Acetyl-Tyrosinamide | – | – | significantly stimulate | –
Oc1ccc(C=Cc2cc(O)cc(O)c2)cc1 [Resveratrol] | No | No | did not induce a significant level of PLOD-2 | –
COC1=C(OC)C(=O)C(C/C=C(\C)CC/C=C(\C)CC/C=C(\C)CC/C=C(\C)CC/C=C(\C)CC/C=C(\C)CC/C=C(\C)CC/C=C(\C)CC/C=C(\C)CCC=C(C)C)=C(C)C1=O [Coenzyme Q10] | Yes (11%) | Yes (24%) | – | –
COc1ccc(Cc2nc(=O)c(CCC(=O)N3CCC(C)CC3)n[nH]2)cc1OC [ALB-H09784893] | – | – | significantly stimulate | –
